Measurements from ChEMBL document CHEMBL4616701, “Design, Synthesis, and Pharmacological Evaluation of Second Generation EZH2 Inhibitors with Long Residence Time” (ACS Med Chem Lett, 2020).
Activity calls are given as the source filed them. The rule behind the calls is not given here.

Tests used:
[1] = system: KARPAS-422; test: Antiproliferative activity against human KARPAS422 cells assessed as growth inhibition after 8 days by Cell Titer-Glo luminescent assay; assay type: functional; settings: KARPAS-422, 192 h
[2] = biological target: T1, Histone-lysine N-methyltransferase EZH2 (Homo sapiens, UniProt Q15910); test: Inhibition of N-terminal FLAG-tagged EZH2 in PRC2 complex (unknown origin) expressed in baculovirus infected Sf9 cells using H2N-RKQLATKAAR(Kme0)SAPATGGVKKP-NTPEGBiot peptide as substrate preincubated with [3H]SAM for 4 to 5 hrs followed by substrate addition and measured after 20 hrs by Topcount reader analysis
Target sequence in this assay (Q15910 whole entry): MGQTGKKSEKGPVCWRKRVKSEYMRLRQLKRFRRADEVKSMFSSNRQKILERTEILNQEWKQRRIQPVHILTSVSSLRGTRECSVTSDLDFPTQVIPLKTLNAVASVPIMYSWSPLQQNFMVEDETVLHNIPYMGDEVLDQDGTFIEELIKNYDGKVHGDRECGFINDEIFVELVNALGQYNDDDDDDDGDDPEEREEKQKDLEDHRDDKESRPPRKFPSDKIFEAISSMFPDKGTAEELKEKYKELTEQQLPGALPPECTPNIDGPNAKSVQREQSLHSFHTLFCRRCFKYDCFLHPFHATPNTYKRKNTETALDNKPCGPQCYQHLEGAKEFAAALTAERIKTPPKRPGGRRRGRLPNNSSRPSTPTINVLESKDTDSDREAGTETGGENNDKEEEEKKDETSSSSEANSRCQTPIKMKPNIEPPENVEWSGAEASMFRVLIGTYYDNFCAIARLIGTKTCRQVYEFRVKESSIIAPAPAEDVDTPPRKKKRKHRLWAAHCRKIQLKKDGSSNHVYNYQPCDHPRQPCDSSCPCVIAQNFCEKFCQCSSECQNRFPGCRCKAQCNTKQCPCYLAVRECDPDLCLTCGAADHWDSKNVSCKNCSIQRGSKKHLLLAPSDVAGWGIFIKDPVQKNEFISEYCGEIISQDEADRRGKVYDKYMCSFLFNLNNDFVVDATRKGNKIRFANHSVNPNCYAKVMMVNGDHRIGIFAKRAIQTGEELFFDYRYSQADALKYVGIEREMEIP

[3] = Dose normalized AUClast in CB-17 SCID mouse xenografted with human KARPAS422 cells at 25 mg/kg, po bid for 21 days and measured after 10 hrs post first dose at day 1 by LC-MS analysis; assay type: ADME, organism-based, KARPAS-422; settings: in vivo
[4] = Protein binding in human plasma; assay type: ADME, cell-free; settings: read-out: PPB (converted)
[5] = Protein binding in mouse plasma; assay type: ADME, cell-free; settings: read-out: PPB (converted)
[6] = biological target: T1, Histone-lysine N-methyltransferase EZH2; test: Inhibition of EZH2 in human HeLa cells assessed as inhibition of trimethylation of H3K27 after 72 hrs by AlphaLISA assay; assay type: cell-based
Target sequence in this assay (Q15910 whole entry): as above

[7] = Clearance in iv dosed mouse; assay type: ADME, organism-based; settings: in vivo
[8] = system: KARPAS-422; test: Antitumor activity against human KARPAS422 cells xenografted in CB-17 SCID mouse assessed as tumor regression at 25 mg/kg, po bid and measured on day 14 by caliper method; assay type: functional, organism-based
[9] = system: CYP3A4; test: Upregulation of CYP3A4 mRNA expression in human Fa2N-4 cells at 10 uM after 3 days relative to control; assay type: ADME, cell-based; settings: read-out: FC
[10] = biological target: T1, Histone-lysine N-methyltransferase EZH2; test: In vivo inhibition of EZH2 in CB-17 SCID mouse xenografted with human KARPAS422 cells assessed as reduction in trimethylation of H3K27 in tumor at 25 mg/kg, po bid for 21 days measured after 14 days by MSD-ELISA; assay type: functional, organism-based; settings: KARPAS-422
Target sequence in this assay (Q15910 whole entry, looked up): as the sequence (Q15910 whole entry) above

[11] = Oral bioavailability in CB-17 SCID mouse xenografted with human KARPAS422 cells at 25 mg/kg, bid for 21 days measured up to 10 hrs post first dose at day 1 by LC-MS analysis; assay type: ADME, organism-based, KARPAS-422; settings: in vivo
[12] = Toxicity in CB-17 SCID mouse xenografted with human KARPAS422 cells assessed as effect on body weight at 25 mg/kg, po bid and measured on day 21; assay type: organism-based, KARPAS-422; settings: in vivo
[13] = system: KARPAS-422; test: Antitumor activity against human KARPAS422 cells xenografted in CB-17 SCID mouse assessed as tumor growth inhibition at 25 mg/kg, po bid and measured on day 21 by caliper method relative to control; assay type: functional; settings: KARPAS-422, po, 504 h, read-out: TGI
[14] = Time during which free drug concentration exceeds EC50 for inhibition of EZH2 in human HeLa cells in CB-17 SCID mouse xenografted with human KARPAS422 cells at 25 mg/kg, po bid for 21 days and measured up to 10 hrs post first dose at day 1 by LC-MS analysis; assay type: organism-based; settings: in vivo
[15] = system: KARPAS-422; test: Antitumor activity against human KARPAS422 cells xenografted in CB-17 SCID mouse assessed as tumor growth inhibition at 25 mg/kg, po bid and measured on day 25 by caliper method relative to control; assay type: functional; settings: KARPAS-422, po, 600 h, read-out: TGI
[16] = biological target: T1, Histone-lysine N-methyltransferase EZH2; test: Binding affinity to N-terminal FLAG-tagged EZH2 in PRC2 complex (unknown origin) expressed in baculovirus infected Sf9 cells assessed as residence time at 21 nM pre-equilibrated with enzyme followed by incubation with bio-EZH2i and measured after 3 to 6 mins by TR-FRET assay
Target sequence in this assay (Q15910 whole entry, looked up): as the sequence (Q15910 whole entry) above

[17] = system: KARPAS-422; test: Antitumor activity against human KARPAS422 cells xenografted in CB-17 SCID mouse assessed as tumor regression at 160 mg/kg, po bid for 23 days and measured three times per week by caliper method; assay type: functional, organism-based
[18] = Toxicity in CB-17 SCID mouse xenografted with human KARPAS422 cells assessed as body weight loss at 50 mg/kg, sc bid for 16 days; assay type: organism-based, KARPAS-422; settings: in vivo, 384 h
[19] = system: KARPAS-422; test: Antitumor activity against human KARPAS422 cells xenografted in CB-17 SCID mouse assessed as tumor regression at 50 mg/kg, sc bid for 16 days and measured at day 9 by caliper method; assay type: functional, organism-based
[20] = system: CWR22R; test: Antitumor activity against human 22Rv1 cells xenografted in CB-17 SCID mouse assessed as tumor growth inhibition at 50 mg/kg, sc bid and measured three times per week by caliper method relative to control; assay type: functional; settings: 22Rv1, sc, read-out: TGI
[21] = system: KARPAS-422; test: Antitumor activity against human KARPAS422 cells xenografted in CB-17 SCID mouse assessed as tumor regression at 50 mg/kg, sc bid for 16 days and measured at day 7 by caliper method; assay type: functional, organism-based
[22] = system: KARPAS-422; test: Antitumor activity against human KARPAS422 cells xenografted in CB-17 SCID mouse assessed as tumor growth inhibition at 50 mg/kg, sc bid for 16 days and measured three times per week by caliper method relative to control; assay type: functional; settings: KARPAS-422, sc, 384 h, read-out: TGI
[23] = Oral bioavailability in mouse; assay type: ADME, organism-based; settings: in vivo

Row | SMILES | GI50 [1] | IC50 [2] | EC50 [6] | fold induction at 72 h, 10 µM [9] | TIME [16] | further results
1 | CSc1cc(C)[nH]c(=O)c1CNC(=O)c1c(C)n([C@H](C)[C@H]2CC[C@H](N3CC(OC4CC4)C3)CC2)c2ncccc12 | 12 to 12.2 nM | 0.057 nM | 1.8 nM | 2.2 | 57.5 h | AUClast/dose [3]: 46.5 ng·h/mL/(mg/kg); fraction unbound [4]: 0.03; fraction unbound [5]: 0.13; clearance [7]: 55.8 mL/min/kg; Activity [8]: Active; inhibition [10]: Active; bioavailability [11]: 15%; Activity [12]: Non-Toxic; inhibition in vivo at 25 mg/kg [13]: 75%; T>fEC50 [14]: 4 h; inhibition in vivo at 25 mg/kg [15]: ≥ 91%
2 | Cc1cc([S+](C)[O-])c(CNC(=O)c2c(C)n([C@H](C)C3CCN(CC(F)(F)F)CC3)c3ccccc23)c(=O)[nH]1 (stereo partly drawn) |  | 19 nM | > 304 nM |  |  | 
3 | CSc1cc(C)[nH]c(=O)c1CNC(=O)c1c(C)n([C@H](C)[C@H]2CC[C@H](NC3COC3)CC2)c2ccccc12 |  | 0.13 nM | 6.7 nM | 5 | 138 h | 
4 | Cc1cc(Cl)c(CNC(=O)c2c(C)n([C@H](C)C3CCN(CC(F)(F)F)CC3)c3ccccc23)c(=O)[nH]1 |  | 0.2 to 30 nM | < 100 nM |  |  | 
5 | CSc1cc(C)[nH]c(=O)c1CNC(=O)c1c(C)n([C@H](C)[C@H]2CC[C@H](N3CC(OC4CC4)C3)CC2)c2c(F)cccc12 | 32 nM | 0.063 nM | 3.4 nM |  | 100 h | 
6 | CCN(c1cc(-c2ccc(CN3CCOCC3)cc2)cc(C(=O)NCc2c(C)cc(C)[nH]c2=O)c1C)C1CCOCC1 |  |  |  |  |  | Activity [17]: Active
7 | CSc1cc(C)[nH]c(=O)c1CNC(=O)c1c(C)n([C@H](C)C2CCN(CC(C)(C)O)CC2)c2ccccc12 |  | 0.067 nM | 26 nM |  | 7.52 h | 
8 | COC1CN([C@H]2CC[C@H]([C@@H](C)n3c(C)c(C(=O)NCc4c(SC)cc(C)[nH]c4=O)c4ccccc43)CC2)C1 | 33 nM | 0.059 nM | 2 nM | 2 | 141 h | Activity [18]: Non-Toxic; Activity [19]: Active; inhibition in vivo at 50 mg/kg [20]: 55%
9 | CSc1cc(C)[nH]c(=O)c1CNC(=O)c1c(C)n([C@H](C)[C@H]2OC[C@H](N(C)C)CO2)c2ccccc12 |  | 0.16 nM | 2.4 nM | 3 | 40.9 h | 
10 | CSc1cc(C)[nH]c(=O)c1CNC(=O)c1c(C)n([C@H](C)[C@H]2CC[C@H](N3CC(OC4CC4)C3)CC2)c2ccccc12 | 13 nM | 0.072 nM | 3.5 nM | 17 | 289 h | 
11 | CSc1cc(C)[nH]c(=O)c1CNC(=O)c1c(C)n([C@H](C)[C@H]2CC[C@H](N3CC(OC4CC4)C3)CC2)c2ncncc12 | 29 nM | 0.1 nM | 6.3 nM |  | 51.9 h | 
12 | COc1cc(C)c(CNC(=O)c2c(C)n([C@H](C)C3CCN(CC(F)(F)F)CC3)c3ccccc23)c(=O)[nH]1 |  | 0.2 to 30 nM | > 1000 nM |  |  | 
13 | Cc1cc(C)c(CNC(=O)c2c(C)n([C@H](C)C3CCN(CC(F)(F)F)CC3)c3ccccc23)c(=O)[nH]1 |  | 0.2 to 30 nM |  |  |  | 
14 | Cc1cc(SCc2ccccc2)c(CNC(=O)c2c(C)n([C@H](C)C3CCN(CC(F)(F)F)CC3)c3ccccc23)c(=O)[nH]1 |  | 3.8 nM |  |  |  | 
15 | CSc1cc(C)[nH]c(=O)c1CNC(=O)c1c(C)n([C@H](C)[C@H]2CC[C@H](N3CC(OC(F)F)C3)CC2)c2ccccc12 | 12 nM | 0.1 nM | 0.7 nM | 32 | 211 h | 
16 | Cc1cc(SC2CCC2)c(CNC(=O)c2c(C)n([C@H](C)C3CCN(CC(F)(F)F)CC3)c3ccccc23)c(=O)[nH]1 |  | 0.49 nM | 48.5 nM |  |  | 
17 | COc1cc(C)[nH]c(=O)c1CNC(=O)c1c(C)n([C@H](C)C2CCN(CC(F)(F)F)CC2)c2ccccc12 [CPI-1205] | 436 nM |  |  |  | 4.5 h | 
18 | CSc1cc(C)[nH]c(=O)c1CNC(=O)c1c(C)n([C@H](C)[C@H]2CC[C@H](N3CC(OC(F)(F)F)C3)CC2)c2ccccc12 | 32 nM | 0.14 nM | 1.8 nM | 41 |  | 
19 | CSc1cc(C)[nH]c(=O)c1CNC(=O)c1c(C)n([C@H](C)C2CCN(CC(F)(F)F)CC2)c2ccccc12 | 53 nM | 0.18 nM | 2.5 nM | 25 | 46.3 h | Activity [18]: Non-Toxic; fraction unbound [4]: 0.03; fraction unbound [5]: 0.002; clearance [7]: 9.33 mL/min/kg; Activity [21]: Active; inhibition in vivo at 50 mg/kg [22]: 77 to 88%; bioavailability [23]: 40%
20 | Cc1cc(Sc2ccccc2)c(CNC(=O)c2c(C)n([C@H](C)C3CCN(CC(F)(F)F)CC3)c3ccccc23)c(=O)[nH]1 |  | 0.62 nM | 181 nM |  |  | 
21 | CSc1cc(C)[nH]c(=O)c1CNC(=O)c1c(C)n([C@H](C)C2CCN(C3COC3)CC2)c2ccccc12 |  | 0.12 nM | 5.1 nM | 6.4 | 42.5 h | 
22 | CSc1cc(C)[nH]c(=O)c1CNC(=O)c1c(C)n([C@H](C)[C@H]2CC[C@H](N3CC(OC4CC4)C3)CC2)c2ncc(Cl)cc12 | 37 nM | 0.092 nM | 3.5 nM | 1.6 | 64.2 h | 
23 | CSc1cc(C)[nH]c(=O)c1CNC(=O)c1c(C)n([C@H](C)[C@H]2CC[C@H](N3CC(OC4CC4)C3)CC2)c2ncc(F)cc12 | 24 nM | 0.06 nM | 1.8 nM | 12 | 65.8 h | 
24 | Cc1cc(Cl)[nH]c(=O)c1CNC(=O)c1c(C)n([C@H](C)C2CCN(CC(F)(F)F)CC2)c2ccccc12 |  | 0.2 to 30 nM | > 1000 nM |  |  | 
25 | Cc1cc(S(C)(=O)=O)c(CNC(=O)c2c(C)n([C@H](C)C3CCN(CC(F)(F)F)CC3)c3ccccc23)c(=O)[nH]1 |  | 4.1 nM | > 304 nM |  |  | 
26 | CCSc1cc(C)[nH]c(=O)c1CNC(=O)c1c(C)n([C@H](C)C2CCN(CC(F)(F)F)CC2)c2ccccc12 |  | 0.73 nM | 45.3 nM |  |  | 
27 | CSc1cc(C)[nH]c(=O)c1CNC(=O)c1c(C)n([C@H](C)[C@H]2CC[C@@H](N3CC(F)(F)C3)CC2)c2ccccc12 |  | 0.18 nM | 5.9 nM | 45 | 29.1 h | 
